From ChEMBL document CHEMBL5528040, “Design and Synthesis of Novel 3-Nitro-1H-1,2,4-triazole-1,2,3-triazole-1,4-disubstituted Analogs as Promising Antitrypanosomatid Agents: Evaluation of In Vitro Activity against Chagas Disease and Leishmaniasis” (J Med Chem, 2024)

How the values were obtained:
Leishmania amazonensis = assay: Antileishmanial activity against Leishmania amazonensis IFLA/BR/1967/PH8 amastigotes infected in murine peritoneal macrophages incubated for 24 hrs by Giemsa staining based analysis; assay type: functional, organism-based; conditions: IFLA/BR/1967/PH8, Peritoneal macrophage
[1] = Mutagenicity in Salmonella typhimurium TA102 assessed as mutagenic index ratio at 150 ug per plate incubated for 90 mins by AMES test; assay type: toxicity, Salmonella enterica subsp. enterica serovar Typhimurium; conditions: in vivo, 1.5 h, dose 150 µg
[2] = Mutagenicity in Salmonella typhimurium TA102 assessed as number of revertant colonies at 150 ug per plate incubated for 90 mins in presence of S9 fraction by AMES test (reference value: 130.00 +/- 6.93); assay type: toxicity, subcellular, Salmonella enterica subsp. enterica serovar Typhimurium; conditions: s9, 1.5 h, dose 150 µg
[3] = Mutagenicity in Salmonella typhimurium TA98 assessed as number of revertant colonies at 50 ug per plate incubated for 90 mins in presence of S9 fraction by AMES test (reference value: 21.00 +/- 1.00); assay type: toxicity, subcellular, Salmonella enterica subsp. enterica serovar Typhimurium; conditions: s9, 1.5 h, dose 50 µg
[4] = Mutagenicity in Salmonella typhimurium TA98 assessed as mutagenic index ratio at 1500 ug per plate incubated for 90 mins in presence of S9 fraction by AMES test; assay type: toxicity, subcellular, Salmonella enterica subsp. enterica serovar Typhimurium; conditions: s9, 1.5 h, dose 1500 µg
[5] = Mutagenicity in Salmonella typhimurium TA98 assessed as number of revertant colonies at 1500 ug per plate incubated for 90 mins in presence of S9 fraction by AMES test (reference value: 21.00 +/- 1.00); assay type: toxicity, subcellular, Salmonella enterica subsp. enterica serovar Typhimurium; conditions: s9, 1.5 h, dose 1500 µg
[6] = Mutagenicity in Salmonella typhimurium TA100 assessed as mutagenic index ratio at 50 ug per plate incubated for 90 mins by AMES test; assay type: toxicity, Salmonella enterica subsp. enterica serovar Typhimurium; conditions: in vivo, 1.5 h, dose 50 µg
[7] = Mutagenicity in Salmonella typhimurium TA98 assessed as mutagenic index ratio at 50 ug per plate incubated for 90 mins by AMES test; assay type: toxicity, Salmonella enterica subsp. enterica serovar Typhimurium; conditions: in vivo, 1.5 h, dose 50 µg
[8] = Mutagenicity in Salmonella typhimurium TA102 assessed as mutagenic index ratio at 1500 ug per plate incubated for 90 mins by AMES test; assay type: toxicity, Salmonella enterica subsp. enterica serovar Typhimurium; conditions: in vivo, 1.5 h, dose 1500 µg
[9] = Mutagenicity in Salmonella typhimurium TA100 assessed as number of revertant colonies at 150 ug per plate incubated for 90 mins in presence of S9 fraction by AMES test (reference value: 122.67 +/- 5.03); assay type: toxicity, subcellular, Salmonella enterica subsp. enterica serovar Typhimurium; conditions: s9, 1.5 h, dose 150 µg
[10] = Mutagenicity in Salmonella typhimurium TA98 assessed as number of revertant colonies at 5000 ug per plate incubated for 90 mins by AMES test (reference value: 22.67 +/- 0.58); assay type: toxicity, Salmonella enterica subsp. enterica serovar Typhimurium; conditions: in vivo, 1.5 h, dose 5000 µg
[11] = Mutagenicity in Salmonella typhimurium TA98 assessed as mutagenic index ratio at 1500 ug per plate incubated for 90 mins by AMES test; assay type: toxicity, Salmonella enterica subsp. enterica serovar Typhimurium; conditions: in vivo, 1.5 h, dose 1500 µg
[12] = Mutagenicity in Salmonella typhimurium TA100 assessed as number of revertant colonies at 5000 ug per plate incubated for 90 mins in presence of S9 fraction by AMES test (reference value: 122.67 +/- 5.03); assay type: toxicity, subcellular, Salmonella enterica subsp. enterica serovar Typhimurium; conditions: s9, 1.5 h, dose 5000 µg
[13] = Mutagenicity in Salmonella typhimurium TA98 assessed as number of revertant colonies at 1500 ug per plate incubated for 90 mins by AMES test (reference value: 22.67 +/- 0.58); assay type: toxicity, Salmonella enterica subsp. enterica serovar Typhimurium; conditions: in vivo, 1.5 h, dose 1500 µg
[14] = Mutagenicity in Salmonella typhimurium TA98 assessed as mutagenic index ratio at 50 ug per plate incubated for 90 mins in presence of S9 fraction by AMES test; assay type: toxicity, subcellular, Salmonella enterica subsp. enterica serovar Typhimurium; conditions: s9, 1.5 h, dose 50 µg
[15] = Mutagenicity in Salmonella typhimurium TA102 assessed as mutagenic index ratio at 5000 ug per plate incubated for 90 mins in presence of S9 fraction by AMES test; assay type: toxicity, subcellular, Salmonella enterica subsp. enterica serovar Typhimurium; conditions: s9, 1.5 h, dose 5000 µg
[16] = Mutagenicity in Salmonella typhimurium TA100 assessed as mutagenic index ratio at 500 ug per plate incubated for 90 mins by AMES test; assay type: toxicity, Salmonella enterica subsp. enterica serovar Typhimurium; conditions: in vivo, 1.5 h, dose 500 µg
[17] = Mutagenicity in Salmonella typhimurium TA102 assessed as number of revertant colonies at 50 ug per plate incubated for 90 mins in presence of S9 fraction by AMES test (reference value: 130.00 +/- 6.93); assay type: toxicity, subcellular, Salmonella enterica subsp. enterica serovar Typhimurium; conditions: s9, 1.5 h, dose 50 µg
[18] = Mutagenicity in Salmonella typhimurium TA98 assessed as mutagenic index ratio at 5000 ug per plate incubated for 90 mins in presence of S9 fraction by AMES test; assay type: toxicity, subcellular, Salmonella enterica subsp. enterica serovar Typhimurium; conditions: s9, 1.5 h, dose 5000 µg
[19] = Mutagenicity in Salmonella typhimurium TA102 assessed as number of revertant colonies at 500 ug per plate incubated for 90 mins in presence of S9 fraction by AMES test (reference value: 130.00 +/- 6.93); assay type: toxicity, subcellular, Salmonella enterica subsp. enterica serovar Typhimurium; conditions: s9, 1.5 h, dose 500 µg
[20] = Mutagenicity in Salmonella typhimurium TA98 assessed as number of revertant colonies at 500 ug per plate incubated for 90 mins by AMES test (reference value: 22.67 +/- 0.58); assay type: toxicity, Salmonella enterica subsp. enterica serovar Typhimurium; conditions: in vivo, 1.5 h, dose 500 µg
[21] = Mutagenicity in Salmonella typhimurium TA98 assessed as mutagenic index ratio at 500 ug per plate incubated for 90 mins in presence of S9 fraction by AMES test; assay type: toxicity, subcellular, Salmonella enterica subsp. enterica serovar Typhimurium; conditions: s9, 1.5 h, dose 500 µg
[22] = Mutagenicity in Salmonella typhimurium TA102 assessed as number of revertant colonies at 5000 ug per plate incubated for 90 mins by AMES test (reference value: 110.67 +/- 20.15); assay type: toxicity, Salmonella enterica subsp. enterica serovar Typhimurium; conditions: in vivo, 1.5 h, dose 5000 µg
[23] = Selectivity index, ratio of CC50 for cytotoxicity against monkey LLC-MK2 cells to IC50 for antitrypanosomal activity against Trypanosoma cruzi Tulahuen amastigotes transfected with Escherichia coli beta-galactosidase LacZ gene infected in monkey LLC-MK2 cells; assay type: toxicity, cell-based; conditions: read-out: Ratio CC50/IC50
[24] = Mutagenicity in Salmonella typhimurium TA100 assessed as mutagenic index ratio at 5000 ug per plate incubated for 90 mins by AMES test; assay type: toxicity, Salmonella enterica subsp. enterica serovar Typhimurium; conditions: in vivo, 1.5 h, dose 5000 µg
[25] = Mutagenicity in Salmonella typhimurium TA100 assessed as number of revertant colonies at 150 ug per plate incubated for 90 mins by AMES test (reference value: 88.00 +/- 2.65); assay type: toxicity, Salmonella enterica subsp. enterica serovar Typhimurium; conditions: in vivo, 1.5 h, dose 150 µg
[26] = Mutagenicity in Salmonella typhimurium TA102 assessed as number of revertant colonies at 50 ug per plate incubated for 90 mins by AMES test (reference value: 110.67 +/- 20.15); assay type: toxicity, Salmonella enterica subsp. enterica serovar Typhimurium; conditions: in vivo, 1.5 h, dose 50 µg
[27] = Mutagenicity in Salmonella typhimurium TA102 assessed as mutagenic index ratio at 150 ug per plate incubated for 90 mins in presence of S9 fraction by AMES test; assay type: toxicity, subcellular, Salmonella enterica subsp. enterica serovar Typhimurium; conditions: s9, 1.5 h, dose 150 µg
[28] = Mutagenicity in Salmonella typhimurium TA102 assessed as number of revertant colonies at 1500 ug per plate incubated for 90 mins in presence of S9 fraction by AMES test (reference value: 130.00 +/- 6.93); assay type: toxicity, subcellular, Salmonella enterica subsp. enterica serovar Typhimurium; conditions: s9, 1.5 h, dose 1500 µg
[29] = Mutagenicity in Salmonella typhimurium TA100 assessed as number of revertant colonies at 500 ug per plate incubated for 90 mins in presence of S9 fraction by AMES test (reference value: 122.67 +/- 5.03); assay type: toxicity, subcellular, Salmonella enterica subsp. enterica serovar Typhimurium; conditions: s9, 1.5 h, dose 500 µg
[30] = Mutagenicity in Salmonella typhimurium TA100 assessed as mutagenic index ratio at 150 ug per plate incubated for 90 mins in presence of S9 fraction by AMES test; assay type: toxicity, subcellular, Salmonella enterica subsp. enterica serovar Typhimurium; conditions: s9, 1.5 h, dose 150 µg
[31] = Mutagenicity in Salmonella typhimurium TA98 assessed as mutagenic index ratio at 150 ug per plate incubated for 90 mins by AMES test; assay type: toxicity, Salmonella enterica subsp. enterica serovar Typhimurium; conditions: in vivo, 1.5 h, dose 150 µg

With O=[N+]([O-])c1ncn(Cc2cn(-c3ccc(OC(F)(F)F)cc3)nn2)n1 as the compound, how does the IC50 (Leishmania amazonensis) read?
The IC50 was 4.7 µM.

What about the Ratio [1] of the same compound?
The Ratio was 1.4.

What about the Activity [2] of the same compound?
Its Activity is 172.33.

And the Activity [3]?
The Activity was 22.67.

And the Ratio [4]?
Its Ratio is 1.

And the Activity [5]?
Its Activity is 22.

And the Ratio [6]?
Its Ratio is 1.1.

What about the Ratio [7] of the same compound?
Its Ratio is 0.8.

What about the Ratio [8] of the same compound?
Its Ratio is 1.2.

What about the Activity [9] of the same compound?
The Activity was 117.33.

And the Activity [10]?
Its Activity is 25.

And the Ratio [11]?
Its Ratio is 0.8.

What about the Activity [12] of the same compound?
Its Activity is 47.

And the Activity [13]?
The Activity was 20.33.

What about the Ratio [14] of the same compound?
Its Ratio is 1.

And the Ratio [15]?
The Ratio was 1.

What about the Ratio [16] of the same compound?
The Ratio was 0.9.

What about the Activity [17] of the same compound?
The Activity was 162.67.

And the Ratio [18]?
Its Ratio is 0.7.

And the Activity [19]?
Its Activity is 190.

What about the Activity [20] of the same compound?
Its Activity is 21.33.

What about the Ratio [21] of the same compound?
Its Ratio is 1.1.

And the Activity [22]?
Its Activity is 143.67.

What about the selectivity ratio [23] of the same compound?
Its selectivity ratio is over 556.

And the Ratio [24]?
The Ratio was 0.9.

What about the Activity [25] of the same compound?
Its Activity is 96.

And the Activity [26]?
Its Activity is 215.33.

What about the Ratio [27] of the same compound?
The Ratio was 1.3.

And the Activity [28]?
The Activity was 178.67.

And the Activity [29]?
The Activity was 129.

And the Ratio [30]?
Its Ratio is 0.9.

And the Ratio [31]?
The Ratio was 1.
